Results: patent US20130090305A1, “METHOD USING A DIETARY SUPPLEMENT FOR HEALING OR REGRESSING SYMPTOMS OF GASTROESOPHAGEAL REFLUX DISEASE, GASTRITIS AND ULCERS” (priority 2006, published 2013)

Key:
[1] = tested on: spontaneous gastric ulcers; details: 4-week administration in the diet, young pigs; cited from earlier work
gastric acid secretion = details: cited from earlier work
[2] = tested on: nitric oxide biosynthesis; details: cited from earlier work
[3] = tested on: chronic GERD, ulcer of 6 cm in the esophagus; test: Case of a patient with chronic GERD and a 6 cm esophageal ulcer; type: in vivo, human; details: before the formulation; regurgitation and heartburn

Row | Structure (SMILES) | incidence of spontaneous gastric ulcers [1] | action on gastric acid secretion (gastric acid secretion) | effect on nitric oxide biosynthesis [2] | relief of symptoms with earlier treatments [3]
1 | COc1ccc2[nH]cc(CCNC(C)=O)c2c1 [melatonin, N-Acetyl-5-methoxytryptamine] | significantly reduced | inhibitory action | inhibits | –
2 | O=C([O-])O.[Na+] [baking soda] | – | – | – | Neither treatment produced even partial relief
